For three compounds, IC50 results are on record in ChEMBL document CHEMBL1142615, “Polyoxygenated dysidea sterols that inhibit the binding of [I125] IL-8 to the human recombinant IL-8 receptor type A” (J Nat Prod, 2000).

For this test, the target named is T1, C-X-C chemokine receptor type 1 (Homo sapiens, UniProt P25024).
T1 sequence (P25024 whole entry): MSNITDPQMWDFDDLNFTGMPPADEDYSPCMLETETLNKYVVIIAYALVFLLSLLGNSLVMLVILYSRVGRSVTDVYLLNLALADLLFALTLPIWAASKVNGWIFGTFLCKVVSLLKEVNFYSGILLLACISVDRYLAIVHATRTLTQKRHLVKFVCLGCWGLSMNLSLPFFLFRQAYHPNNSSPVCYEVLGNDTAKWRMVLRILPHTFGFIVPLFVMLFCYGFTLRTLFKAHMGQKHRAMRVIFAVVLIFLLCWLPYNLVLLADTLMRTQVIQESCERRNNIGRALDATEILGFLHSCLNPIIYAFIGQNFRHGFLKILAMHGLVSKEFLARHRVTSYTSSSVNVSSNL
In words: Displacement of [125I]IL8 from human recombinant IL8 type A receptor. (In general: In a radioligand displacement assay an active substance lowers the binding of a labelled ligand.)
As usually defined, the IC50 is the midpoint of a concentration-inhibition curve. In the case of `CC(=O)O[C@H]1C2=C([C@H](O)C[C@]3(C)[C@@H]([C@H](C)CCCC(C)C)CC[C@@H]23)[C@@]2(C)CC[C@H](O)C[C@]2(O)[C@H]1OC(C)=O`, the IC50 was 20 µM.
Then `CC(=O)O[C@H]1CC[C@]2(C)C3=C([C@H](OC(C)=O)[C@H](OC(C)=O)[C@@]2(O)C1)[C@@H]1CC[C@H]([C@H](C)CCCC(C)C)[C@@]1(C)C[C@H]3O`, with 5.5 µM.
Then `CC(=O)O[C@H]1C=C2[C@@H]3CC[C@H]([C@H](C)CCCC(C)C)[C@@]3(C)C[C@H]3O[C@@]23[C@@]2(C)CC[C@H](O)C[C@]12O`, with 4.5 µM.
